Reference: the supplement of paper PMC10307832

Key:
Assay in all cases: relative viability (nuclei count vs DMSO), 5 days (fraction); higher = more cells survive
NCI-H727 = system: NCI-H727
Method in brief: (§1)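 Nuclei were stained with Hoechst during a one-step fixation (final 0.05% Triton X-100, 1% formaldehyde, 1 ug/ml Hoechst) carried out 5 days after dosing, then counted on 4× images. The cells, lung cancer lines in 1536-well plates, had been dosed by pin tool the day after seeding with one drug alone or a fixed anchor-drug dose plus five library-drug doses (not always all listed) in √10 steps. Relative viability is the nuclei count in treated wells divided by that in vehicle wells, and each value is the median of duplicate plates.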

NCI-H23 = system: NCI-H23
Method in brief: as §1

NCI-H1437 = system: NCI-H1437
Method in brief: as §1

NCI-H1975 = system: NCI-H1975
Method in brief: as §1

NCI-H1915 = system: NCI-H1915
Method in brief: as §1

A-427 = system: A-427
Method in brief: as §1

COR-L 105 = system: COR-L 105
Method in brief: as §1

NCI-H1792 = system: NCI-H1792
Method in brief: as §1

NCI-H460 = system: NCI-H460
Method in brief: as §1

NCI-H2228 = system: NCI-H2228
Method in brief: as §1

HARA = system: HARA
Method in brief: as §1

LCLC-103H = system: LCLC-103H
Method in brief: as §1

EMC-BAC-2 = system: EMC-BAC-2
Method in brief: as §1

NCI-H1355 = system: NCI-H1355
Method in brief: as §1

CAL-12T = system: CAL-12T
Method in brief: as §1

NCI-H1755 = system: NCI-H1755
Method in brief: as §1

HCC-366 = system: HCC-366
Method in brief: as §1

NCI-H1395 = system: NCI-H1395
Method in brief: as §1

SW 1573 = system: SW 1573
Method in brief: as §1

HCC-827 = system: HCC-827
Method in brief: as §1

SK-LU-1 = system: SK-LU-1
Method in brief: as §1

NCI-H2009 = system: NCI-H2009
Method in brief: as §1

HOP-62 = system: HOP-62
Method in brief: as §1

Question: O=C(O)c1ccc(-c2c[nH]c3ncc(-c4ccccc4)cc23)cc1C1CCCC1 + Cc1nc(NC(=O)N2CCC[C@H]2C(N)=O)sc1-c1ccnc(C(C)(C)C(F)(F)F)c1 [Alpelisib] (partner 2 µM) was tested. Which relative viability (NCI-H727; first compound 0.04 µM) did it give?
Answer: The relative viability was 0.545.

Question: What about the relative viability (NCI-H727; first compound 0.1265 µM) of the same compound?
Answer: Its relative viability is 0.629.

Question: And the relative viability (NCI-H727; first compound 0.4 µM)?
Answer: Its relative viability is 0.7.

Question: And the relative viability (NCI-H727; first compound 1.265 µM)?
Answer: Its relative viability is 0.49.

Question: And the relative viability (NCI-H23; first compound 0.04 µM)?
Answer: The relative viability was 0.61.

Question: What about the relative viability (NCI-H23; first compound 0.1265 µM) of the same compound?
Answer: The relative viability was 0.852.

Question: What about the relative viability (NCI-H23; first compound 0.4 µM) of the same compound?
Answer: Its relative viability is 0.672.

Question: What about the relative viability (NCI-H23; first compound 1.265 µM) of the same compound?
Answer: The relative viability was 0.423.

Question: What about the relative viability (NCI-H1437; first compound 0.04 µM) of the same compound?
Answer: The relative viability was 0.998.

Question: And the relative viability (NCI-H1437; first compound 0.1265 µM)?
Answer: Its relative viability is 0.951.

Question: And the relative viability (NCI-H1437; first compound 0.4 µM)?
Answer: The relative viability was 0.914.

Question: And the relative viability (NCI-H1437; first compound 1.265 µM)?
Answer: The relative viability was 0.882.

Question: And the relative viability (NCI-H1975; first compound 0.04 µM)?
Answer: Its relative viability is 0.633.

Question: What about the relative viability (NCI-H1975; first compound 0.1265 µM) of the same compound?
Answer: Its relative viability is 0.817.

Question: And the relative viability (NCI-H1975; first compound 0.4 µM)?
Answer: The relative viability was 0.652.

Question: What about the relative viability (NCI-H1975; first compound 1.265 µM) of the same compound?
Answer: Its relative viability is 0.578.

Question: What about the relative viability (NCI-H1915; first compound 0.04 µM) of the same compound?
Answer: The relative viability was 1.13.

Question: And the relative viability (NCI-H1915; first compound 0.1265 µM)?
Answer: The relative viability was 1.07.

Question: And the relative viability (NCI-H1915; first compound 0.4 µM)?
Answer: The relative viability was 1.04.

Question: And the relative viability (NCI-H1915; first compound 1.265 µM)?
Answer: Its relative viability is 0.737.

Question: And the relative viability (A-427; first compound 0.04 µM)?
Answer: The relative viability was 1.03.

Question: What about the relative viability (A-427; first compound 0.1265 µM) of the same compound?
Answer: The relative viability was 1.13.

Question: And the relative viability (A-427; first compound 0.4 µM)?
Answer: The relative viability was 1.06.

Question: And the relative viability (A-427; first compound 1.265 µM)?
Answer: Its relative viability is 0.93.

Question: And the relative viability (COR-L 105; first compound 0.04 µM)?
Answer: The relative viability was 0.893.

Question: What about the relative viability (COR-L 105; first compound 0.1265 µM) of the same compound?
Answer: The relative viability was 1.02.

Question: And the relative viability (COR-L 105; first compound 0.4 µM)?
Answer: The relative viability was 1.04.

Question: And the relative viability (COR-L 105; first compound 1.265 µM)?
Answer: Its relative viability is 0.79.

Question: What about the relative viability (NCI-H1792; first compound 0.04 µM) of the same compound?
Answer: The relative viability was 0.681.

Question: What about the relative viability (NCI-H1792; first compound 0.1265 µM) of the same compound?
Answer: The relative viability was 0.9.

Question: And the relative viability (NCI-H1792; first compound 0.4 µM)?
Answer: Its relative viability is 0.688.

Question: What about the relative viability (NCI-H1792; first compound 1.265 µM) of the same compound?
Answer: The relative viability was 0.66.

Question: And the relative viability (NCI-H460; first compound 0.04 µM)?
Answer: Its relative viability is 0.518.

Question: What about the relative viability (NCI-H460; first compound 0.1265 µM) of the same compound?
Answer: The relative viability was 0.607.

Question: What about the relative viability (NCI-H460; first compound 0.4 µM) of the same compound?
Answer: Its relative viability is 0.483.

Question: And the relative viability (NCI-H460; first compound 1.265 µM)?
Answer: The relative viability was 0.416.

Question: And the relative viability (NCI-H2228; first compound 0.04 µM)?
Answer: Its relative viability is 0.755.

Question: What about the relative viability (NCI-H2228; first compound 0.1265 µM) of the same compound?
Answer: Its relative viability is 0.787.

Question: And the relative viability (NCI-H2228; first compound 0.4 µM)?
Answer: Its relative viability is 0.552.

Question: What about the relative viability (NCI-H2228; first compound 1.265 µM) of the same compound?
Answer: The relative viability was 0.468.

Question: What about the relative viability (HARA; first compound 0.04 µM) of the same compound?
Answer: Its relative viability is 0.775.

Question: What about the relative viability (HARA; first compound 0.1265 µM) of the same compound?
Answer: The relative viability was 0.988.

Question: What about the relative viability (HARA; first compound 0.4 µM) of the same compound?
Answer: The relative viability was 0.812.

Question: And the relative viability (HARA; first compound 1.265 µM)?
Answer: Its relative viability is 0.707.

Question: What about the relative viability (LCLC-103H; first compound 0.04 µM) of the same compound?
Answer: Its relative viability is 1.01.

Question: What about the relative viability (LCLC-103H; first compound 0.1265 µM) of the same compound?
Answer: The relative viability was 1.02.

Question: What about the relative viability (LCLC-103H; first compound 0.4 µM) of the same compound?
Answer: The relative viability was 1.08.

Question: What about the relative viability (LCLC-103H; first compound 1.265 µM) of the same compound?
Answer: The relative viability was 0.984.

Question: And the relative viability (EMC-BAC-2; first compound 0.04 µM)?
Answer: Its relative viability is 0.739.

Question: And the relative viability (EMC-BAC-2; first compound 0.1265 µM)?
Answer: Its relative viability is 0.782.

Question: And the relative viability (EMC-BAC-2; first compound 0.4 µM)?
Answer: Its relative viability is 0.719.

Question: What about the relative viability (EMC-BAC-2; first compound 1.265 µM) of the same compound?
Answer: The relative viability was 0.713.

Question: And the relative viability (NCI-H1355; first compound 0.04 µM)?
Answer: Its relative viability is 0.795.

Question: And the relative viability (NCI-H1355; first compound 0.1265 µM)?
Answer: The relative viability was 0.804.

Question: And the relative viability (NCI-H1355; first compound 0.4 µM)?
Answer: The relative viability was 0.819.

Question: What about the relative viability (NCI-H1355; first compound 1.265 µM) of the same compound?
Answer: Its relative viability is 0.621.

Question: And the relative viability (CAL-12T; first compound 0.04 µM)?
Answer: The relative viability was 1.17.

Question: And the relative viability (CAL-12T; first compound 0.1265 µM)?
Answer: Its relative viability is 1.45.

Question: And the relative viability (CAL-12T; first compound 0.4 µM)?
Answer: Its relative viability is 1.2.

Question: What about the relative viability (CAL-12T; first compound 1.265 µM) of the same compound?
Answer: Its relative viability is 1.11.

Question: And the relative viability (NCI-H1755; first compound 0.04 µM)?
Answer: Its relative viability is 0.952.

Question: What about the relative viability (NCI-H1755; first compound 0.1265 µM) of the same compound?
Answer: The relative viability was 1.02.

Question: What about the relative viability (NCI-H1755; first compound 0.4 µM) of the same compound?
Answer: The relative viability was 0.98.

Question: What about the relative viability (NCI-H1755; first compound 1.265 µM) of the same compound?
Answer: The relative viability was 0.923.

Question: And the relative viability (HCC-366; first compound 0.04 µM)?
Answer: The relative viability was 0.443.

Question: What about the relative viability (HCC-366; first compound 0.1265 µM) of the same compound?
Answer: Its relative viability is 0.721.

Question: And the relative viability (HCC-366; first compound 0.4 µM)?
Answer: Its relative viability is 0.653.

Question: What about the relative viability (HCC-366; first compound 1.265 µM) of the same compound?
Answer: Its relative viability is 0.32.

Question: What about the relative viability (NCI-H1395; first compound 0.04 µM) of the same compound?
Answer: Its relative viability is 1.35.

Question: What about the relative viability (NCI-H1395; first compound 0.1265 µM) of the same compound?
Answer: The relative viability was 1.01.

Question: What about the relative viability (NCI-H1395; first compound 0.4 µM) of the same compound?
Answer: Its relative viability is 1.1.

Question: And the relative viability (NCI-H1395; first compound 1.265 µM)?
Answer: The relative viability was 0.769.

Question: And the relative viability (SW 1573; first compound 0.04 µM)?
Answer: Its relative viability is 0.687.

Question: And the relative viability (SW 1573; first compound 0.1265 µM)?
Answer: The relative viability was 0.89.

Question: And the relative viability (SW 1573; first compound 0.4 µM)?
Answer: Its relative viability is 0.797.

Question: And the relative viability (SW 1573; first compound 1.265 µM)?
Answer: Its relative viability is 0.891.

Question: And the relative viability (HCC-827; first compound 0.04 µM)?
Answer: Its relative viability is 0.847.

Question: What about the relative viability (HCC-827; first compound 0.1265 µM) of the same compound?
Answer: Its relative viability is 0.988.

Question: What about the relative viability (HCC-827; first compound 0.4 µM) of the same compound?
Answer: Its relative viability is 0.89.

Question: And the relative viability (HCC-827; first compound 1.265 µM)?
Answer: The relative viability was 0.747.

Question: What about the relative viability (SK-LU-1; first compound 0.04 µM) of the same compound?
Answer: Its relative viability is 0.901.

Question: What about the relative viability (SK-LU-1; first compound 0.1265 µM) of the same compound?
Answer: The relative viability was 1.06.

Question: And the relative viability (SK-LU-1; first compound 0.4 µM)?
Answer: The relative viability was 0.817.

Question: What about the relative viability (SK-LU-1; first compound 1.265 µM) of the same compound?
Answer: Its relative viability is 0.548.

Question: And the relative viability (NCI-H2009; first compound 0.04 µM)?
Answer: Its relative viability is 1.17.

Question: And the relative viability (NCI-H2009; first compound 0.1265 µM)?
Answer: Its relative viability is 1.16.

Question: What about the relative viability (NCI-H2009; first compound 0.4 µM) of the same compound?
Answer: The relative viability was 1.09.

Question: What about the relative viability (NCI-H2009; first compound 1.265 µM) of the same compound?
Answer: The relative viability was 0.955.

Question: And the relative viability (HOP-62; first compound 0.04 µM)?
Answer: Its relative viability is 0.709.

Question: And the relative viability (HOP-62; first compound 0.1265 µM)?
Answer: The relative viability was 1.02.

Question: And the relative viability (HOP-62; first compound 0.4 µM)?
Answer: The relative viability was 0.942.

Question: And the relative viability (HOP-62; first compound 1.265 µM)?
Answer: The relative viability was 0.922.
